Results on 5 molecules are retold here after patent US8512943B2, “Accessing the toxic potential of nanomaterials” (The Regents of the University of California, priority 2005, dated 2013).

For data set [1], the system named is RAW 264.7 cells. In words: Propidium iodide (PI) uptake, cellular toxicity. It is filed as cell-based. As for the experimental part: (§1) Cells were stained with the fluorescent dyes diluted in DMEM. The following dye combinations were added for 15-30 min at 37° C. in the dark: (i) 47.5 μg/ml propidium iodide (PI) in 200 μl DMEM (assessment of cell death); (ii) 20 nM DiOC6 (assessment of Δψm); (iii) 2 μM MitoSOX™ red (superoxide generation) or 2 μM hydroethidine (HE, superoxide production); (iv) 2.5 μM 2,7 dichlorofluorescein (DCF, mostly assesses H2O2 production); (v) 5 μM Fluo-3 (assess cytoplasmic free calcium); (vi) 4 μM Rhod-2 (mitochondrial free calcium); (vii) 40 μM monobromobimane (MBB, assess intracellular thiol levels). Flow cytometry was performed using a FACScan (Becton Dickinson, Mountain View, Calif.) equipped with a single 488 nm argon laser. DiOC6 and Fluo-3 fluorescence were analyzed in the FL-1 channel, while PI, Rhod-2 and MitoSOX red fluorescence were analyzed in FL-2. HE fluorescence was analyzed using FL-3 channels. Monobromobimane fluorescence was excited by the UV laser tuned to 325 nm, and emission was measured at 510 nm (FL-4 channel) in the LSR flow cytometer. Forward and side scatter were used to gate out cellular fragments.
Large-scale PTP opening leads to mitochondrial depolarization, O2.^− production and the release of pro-apoptotic factors. Cellular toxicity was assessed by PI staining (FIG. 18C).

Data set [2] concerns RAW 264.7 cells. In words: MitoSOX Red fluorescence (mitochondrial superoxide production), flow cytometry. It is filed as cell-based, mouse. In general terms: In flow cytometry, cells or beads pass a laser one at a time.
Protocol: (§2) RAW 264.7 cells were cultured in a 5% CO2 in Dulbecco's Modified Eagle Medium (DMEM) containing 10% FCS, 5000 U/ml penicillin, 500 μg/ml streptomycin, and 2 mM L-glutamine (complete medium). For exposure to NP, aliquots of 3×10^5 cells were cultured in 24-well plates in 0.5 ml of medium at 37° C. for the indicated time periods. All the NP solutions were prepared fresh from stock solutions (10 mg/ml) and the solutions were sonicated for 10 sec before addition to cell cultures.
Data set [3] has as its system RAW 264.7 cells. In words: DCF fluorescence (H2O2 production), flow cytometry. It is filed as cell-based, mouse.
Protocol: as §2
Cells were stained with the fluorescent dyes diluted in DMEM. […] DiOC6 and Fluo-3 fluorescence were analyzed in the FL-1 channel, while PI, Rhod-2 and MitoSOX red fluorescence were analyzed in FL-2. HE fluorescence was analyzed using FL-3 channels. Monobromobimane fluorescence was excited by the UV laser tuned to 325 nm, and emission was measured at 510 nm (FL-4 channel) in the LSR flow cytometer. […]
The fold-increase in mean fluorescence intensity (MFI) of DCF was expressed as the ratio of particle-treated vs. control cells (FIG. 8A).
The subject of a further data set is HO-1. Put plainly: HO-1 expression by immunoblotting. It is filed as cell-based, mouse. On the technique in general: In western blotting, separated proteins are transferred to a membrane and probed.
For another data set, the system named is TNF-α. In words: TNF-α production by ELISA. It is filed as cell-based, mouse. The text has this: Triplicate aliquots of RAW 264.7 cells were exposed to NP for 6 hr. The culture media were collected, centrifuged to remove all debris and the resultant supernatant assayed by ELISA for TNF-α and Western blotting for Jun kinase.
In general terms: ELISA stands for enzyme-linked immunosorbent assay.

Data set [4] relates to RAW 264.7 cells.
Protocol: Electron microscopy was performed as previously described (Yang A H, et al., In Vitro Cell Dev Biol 23:34-46, 1987). Thin sections were cut with a Reichert-Jung ultracut and ultramicrotome (Leica, Stuttgart, Germany). Copper grids were stained with lead citrate and uranyl acetate and photographed in a Hitachi electron microscope (Hitachi Instrument Inc., Tokyo, Japan).
The test system of data set [5] is RAW 264.7 cells. In words: DiOC6 fluorescence, mitochondrial membrane potential (Δψm). The class given is cell-based. As for the experimental part:
as §1
Toxic oxidative stress can perturb mitochondrial function in a number of ways, including disruption of electron flow in the inner membrane, dissipation of the mitochondrial membrane potential (Δψm), mitochondrial Ca^2+ uptake, and large-scale opening of the PTP. […]

Protocol for HO-1: GAPDH immunoblotting was used to ascertain equal protein loading (lower panels).
For Western blotting, 100 μg of total protein was separated by 10% SDS-PAGE and transferred to a PVDF membrane. After blocking, the membranes were incubated with primary antibodies against HO-1, phospho-JNK or JNK. The membranes were overlayed with secondary antibody before the addition of the HRP-conjugated avidin-biotin complex. The proteins were detected using ECL reagent according to the manufacturer's instructions. Protein abundance was quantified by densitometric scanning using a laser Personal Densitometer SI and Image Quant software (Amersham Biosciences).

Take `CC(=O)N[C@@H](CS)C(=O)O` [NAC, N-acetylcysteine]: the “effect on cytotoxicity of UFP and NH2-PS” value with RAW 264.7 cells [1] is reported as “could interfere”. For the same molecule, the “effect on NH2-PS ROS response” value in the data set on RAW 264.7 cells [2] (8 hrs) is reported as “failed to suppress”; in the data set on RAW 264.7 cells [2] (16 hrs) it was “did interfere”. The “effect on UFP-induced O2.− generation” value in the data set on RAW 264.7 cells [2] (all time points) is “could interfere”. The “effect on ROS production by NH2-PS particles” value in the data set with RAW 264.7 cells [3] is listed as “effectively disrupted”. The “effect on UFP-induced H2O2 production” value with RAW 264.7 cells [3] (pretreatment, 4 and 16 hrs) is “significantly suppressed”. Moreover, the “effect on induction of HO-1 expression by NP” value with HO-1 is listed as “suppressed”. Besides, in the data set on TNF-α (pre-treatment 2 hr, then UFP 6 hr), the “effect on UFP-induced TNF-α production” value is on record as “capable of interfering”.
On to `C[S+]([O-])CCCCN=C=S` (stereo not drawn) [SFN, Sulforaphane], for which the “HO-1 expression after prior treatment” value with HO-1 (without NP) is listed as “resulted in HO-1 expression”. Besides, the “effect of prior treatment on TNF-α production” value in the data set on TNF-α (pre-treatment 4 hr, then UFP 6 hr) is reported as “interference”.
As to Carbon Black, in the data set with RAW 264.7 cells [4], the “cellular uptake, subcellular localization and mitochondrial damage” value was “taken up in phagosomes without mitochondrial damage”.
As for Polymyxin B [PMB], in the data set on TNF-α (6 hr), the “effect on LPS-induced TNF-α response” value is given as “significant suppression” and the “effect on UFP TNF-α response” value is given as “small effect”.
With titanium dioxide [TiO2], the “cellular uptake, subcellular localization and mitochondrial damage” value with RAW 264.7 cells [4] is given as “taken up into loose-fitting phagosomes without noticeable mitochondrial damage”. Also, in the data set with RAW 264.7 cells [5], the “DiOC6 fluorescence (Δψm)” value was “failed to exert an influence”.
